Measured values as given in patent US7977372B2, “Ortho aminoamides for the treatment of cancer” (Hoffmann-La Roche Inc., priority 2009, dated 2011).

How the values were obtained:
[1] = test system: SMMC-7721 liver cancer cells; assay: Growth inhibition of cancer cell lines (MTS / WST assay), SMMC-7721; format: cell-based; settings: for IC90: read-out: SMMC GI90
Protocol: (§1) The novel compounds of the present invention were tested for their ability to inhibit growth of various cancer cell lines using in vitro growth inhibition assays described below.
(§2) Cells were seeded in 96-well culture plates (200 microliters/well at different seeding concentrations depending on cell type) and incubated overnight at 37 degrees Celsius in 5% CO2. After adding compound dilutions to the cells (DMSO concentration kept below 0.5%), the cells were incubated at 37 degrees Celsius in 5% CO2 for 72 hours. The effects on proliferation were determined by addition of MTS reagent (Promega) according to the manufacturer's instruction, followed by incubation for 2 hours at 37 degrees Celsius in 5% CO2, and finally recording the absorbance at 490 nm using an ELISA plate reader.
(§3) Similar to MTS assay except that the developer is the CCK-8 reagent (Dojindo) and the plate reader is set to 450 nm absorbance.
(§4) GI50 and GI90 values against SGC-7901 gastric cancer cells and SMMC-7721 liver cancer cells for specific representative compounds can be found in Table 19.

[2] = test system: histone deacetylase (HeLa nuclear extract); assay: HeLa extract HDAC fluorometric assay; format: biochemical; settings: compound at 30 micromolar; relative to SNDX-275
Protocol: Novel compounds were tested for their ability to inhibit histone deacetylase using an in vitro deacetylation assay. The enzyme source for this assay was HeLa nuclear extract. The substrate consisted of a commercial product containing an acetylated lysine side chain (both HeLa extract and substrate are available commercially from BIOMOL Research Laboratories, Inc., Plymouth Meeting, Pa.). After deacetylation of the substrate by incubation with HeLa nuclear extract, subsequent exposure to a developing reagent produces a fluorophore that is directly proportional to the level of deacetylation. Using the substrate concentration at the Km for the HeLa nuclear extract, the deacetylation assay was performed in the presence of novel compounds at 30 micromolar and the percent enzyme inhibition relative to a known reference HDAC inhibitor (SNDX-275) was determined. […] Inhibitory activity for specific representative compounds can be found in Table 19.

[3] = test system: SGC-7901 gastric cancer cells; assay: Growth inhibition of cancer cell lines (MTS / WST assay), SGC-7901; format: cell-based; settings: for IC90: read-out: SGC GI90
Protocol: as §1, §2, §3, §4

GI50 ([1]; Homo sapiens, SMMC-7721, 72 h) [nM] | IC90 ([1]; Homo sapiens, SMMC-7721, 72 h) [nM] | HD RP30 (relative inhibitory potency compared with SNDX-275) [2] | GI50 ([3]; Homo sapiens, SGC-7901, 72 h) [nM] | IC90 ([3]; Homo sapiens, SGC-7901, 72 h) [nM] | GI50 ([1]; 72 hours) [nM] | SMMC GI90 ([1]; 72 hours) [nM] | GI50 ([3]; 72 hours) [nM] | SGC GI90 ([3]; 72 hours) [nM] | SMILES
650 | 1950 | 1.61 | 390 | 1700 |  |  |  |  | CN1CC(C(=O)Nc2ccc(F)cc2)C(c2ccc(/C=C/C(=O)Nc3ccccc3N)cc2)C1 (racemic) [Example 5, rac-(trans-3,4)-4-{4-[2-(2-Amino-phenylcarbamoyl)-vinyl]-phenyl}-1-methyl-pyrrolidine-3-carboxylic acid (4-fluoro-phenyl)-amide]
910 | 2630 | 1.09 | 420 | 1380 |  |  |  |  | Nc1ccccc1NC(=O)/C=C/c1ccc(C2CN(CCF)CC2C(=O)Nc2ccc(Cl)cc2)cc1 (racemic) [Example 21, rac-(trans-3,4)-4-{4-[2-(2-Amino-phenylcarbamoyl)-vinyl]-phenyl}-1-(2-fluoro-ethyl)-pyrrolidine-3-carboxylic acid (4-chloro-phenyl)-amide]
640 | 1530 | 1.38 | 290 | 1040 |  |  |  |  | CC(C)(CO)N1CC(C(=O)Nc2ccc(Cl)cc2)C(c2ccc(/C=C/C(=O)Nc3ccccc3N)cc2)C1 (racemic) [Example 26, rac-(trans-3,4)-4-{4-[2-(2-Amino-phenylcarbamoyl)-vinyl]-phenyl}-1-(2-hydroxy-1,1-dimethyl-ethyl)-pyrrolidine-3-carboxylic acid (4-chloro-phenyl)-amide]
960 | 3290 | 1.75 | 490 | 1530 |  |  |  |  | CC(C)(C)N1CC(C(=O)Nc2ccc(Cl)cc2)C(c2ccc(/C=C/C(=O)Nc3ccccc3N)cc2)C1 (racemic) [Example 36, rac-(trans-3,4)-4-{4-[2-(2-Amino-phenylcarbamoyl)-vinyl]-phenyl}-1-tert-butyl-pyrrolidine-3-carboxylic acid (4-chloro-phenyl)-amide]
660 | 1980 | 1.73 | 380 | 1130 |  |  |  |  | CN1C[C@@H](C(=O)Nc2ccc(Cl)cc2)[C@H](c2ccc(/C=C/C(=O)Nc3ccccc3N)cc2)C1 [Example 5-2]
780 | 3960 | 1.95 | 310 | 1140 |  |  |  |  | CN1C[C@@H](C(=O)Nc2ccc(F)cc2)[C@H](c2ccc(/C=C/C(=O)Nc3ccccc3N)cc2)C1 [Example 5-8]
670 | 1750 | 1.63 | 490 | 1790 |  |  |  |  | Cc1ccc(NC(=O)C2CN(C)CC2c2ccc(/C=C/C(=O)Nc3ccccc3N)cc2)cc1 (stereo not shown) [Example 5-19]
770 | 1620 | 1.62 | 500 | 1300 |  |  |  |  | CN1CC(C(=O)Nc2ccc(Br)cc2)C(c2ccc(/C=C/C(=O)Nc3ccccc3N)cc2)C1 (stereo not shown) [Example 5-20]
570 | 1600 | 1.61 | 280 | 1120 |  |  |  |  | Cc1cc(NC(=O)C2CN(C)CC2c2ccc(/C=C/C(=O)Nc3ccccc3N)cc2)ccc1F (stereo not shown) [Example 5-27]
760 | 2010 | 1.70 | 310 | 1730 |  |  |  |  | Cc1cccc(NC(=O)C2CN(C)CC2c2ccc(/C=C/C(=O)Nc3ccccc3N)cc2)c1 (stereo not shown) [Example 5-28]
640 | 1390 | 1.65 | 320 | 1040 |  |  |  |  | Cc1cc(NC(=O)C2CN(C)CC2c2ccc(/C=C/C(=O)Nc3ccccc3N)cc2)ccc1Cl (stereo not shown) [Example 5-29]
710 | 2340 | 1.97 | 340 | 1560 |  |  |  |  | CN1CC(C(=O)Nc2ccc(F)c(Cl)c2)C(c2ccc(/C=C/C(=O)Nc3ccccc3N)cc2)C1 (stereo not shown) [Example 5-30]
710 | 2420 | 1.58 | 410 | 2040 |  |  |  |  | CN1CC(C(=O)Nc2ccccc2)C(c2ccc(/C=C/C(=O)Nc3ccccc3N)cc2)C1 (stereo not shown) [Example 5-32]
870 | 2210 | 1.49 | 420 | 1620 |  |  |  |  | COc1ccc(NC(=O)C2CN(C)CC2c2ccc(/C=C/C(=O)Nc3ccccc3N)cc2)cc1 (stereo not shown) [Example 5-33]
700 | 1690 | 1.64 | 420 | 1990 |  |  |  |  | CN1CC(c2ccc(/C=C/C(=O)Nc3ccccc3N)cc2)C(c2ncc(-c3ccccc3)[nH]2)C1 (stereo not shown) [Example 11-2]
680 | 2200 | 1.62 | 320 | 1620 |  |  |  |  | CN1CC(c2ccc(/C=C/C(=O)Nc3ccccc3N)cc2)C(c2nc3ccccc3[nH]2)C1 (stereo not shown) [Example 11-3]
640 | 1810 | 1.70 | 370 | 1710 |  |  |  |  | CN1CC(c2ccc(/C=C/C(=O)Nc3ccccc3N)cc2)C(c2nc3cc(Cl)ccc3[nH]2)C1 (stereo not shown) [Example 11-4]
920 | 3040 | 1.79 | 350 | 1080 |  |  |  |  | CN1CC(c2ccc(/C=C/C(=O)Nc3ccccc3N)cc2)C(c2nc3cc(F)ccc3[nH]2)C1 (stereo not shown) [Example 11-6]
750 | 1870 | 1.36 | 410 | 1170 |  |  |  |  | Nc1ccccc1NC(=O)/C=C/c1ccc(C2CN(C3CCOCC3)CC2C(=O)Nc2ccc(Cl)cc2)cc1 (stereo not shown) [Example 16-2]
720 | 2020 | 1.51 | 290 | 1240 |  |  |  |  | CC(C)N1CC(C(=O)Nc2ccc(F)cc2)C(c2ccc(/C=C/C(=O)Nc3ccccc3N)cc2)C1 (stereo not shown) [Example 16-15]
700 | 1620 | 2.03 | 340 | 890 |  |  |  |  | CC(C)N1CC(C(=O)Nc2ccc(Br)cc2)C(c2ccc(/C=C/C(=O)Nc3ccccc3N)cc2)C1 (stereo not shown) [Example 16-16]
900 | 2450 | 1.53 | 440 | 1890 |  |  |  |  | CC(C)N1CC(C(=O)Nc2ccc(Cl)cc2)C(c2ccc(/C=C/C(=O)Nc3ccccc3N)cc2)C1 (stereo not shown) [Example 16-17]
 |  | 1.90 |  |  | 830 | 2960 | 450 | 1230 | Nc1ccccc1NC(=O)/C=C/c1ccc(C2CN(C3CCOCC3)CC2C(=O)Nc2ccc(Cl)cc2)cc1 (stereo not shown) [Example 16-20]
800 | 2520 | 1.48 | 400 | 1210 |  |  |  |  | CCN1CC(C(=O)Nc2ccc(Cl)cc2)C(c2ccc(/C=C/C(=O)Nc3ccccc3N)cc2)C1 (stereo not shown) [Example 21-6]
1340 | 3320 | 1.47 | 600 | 2950 |  |  |  |  | COCCN1CC(C(=O)Nc2ccc(Cl)cc2)C(c2ccc(/C=C/C(=O)Nc3ccccc3N)cc2)C1 (stereo not shown) [Example 21-15]
760 | 2090 | 1.48 | 540 | 1380 |  |  |  |  | CC(C)(O)CN1CC(C(=O)Nc2ccc(Cl)cc2)C(c2ccc(/C=C/C(=O)Nc3ccccc3N)cc2)C1 (stereo not shown) [Example 31-8]
650 | 1840 | 1.70 | 310 | 1080 |  |  |  |  | CC(C)(C)N1CC(C(=O)Nc2ccc(F)cc2)C(c2ccc(/C=C/C(=O)Nc3ccccc3N)cc2)C1 (stereo not shown) [Example 36-5]
1440 | 4520 | 1.36 | 490 | 2010 |  |  |  |  | CN1CC(C(=O)Nc2ccc(F)cc2)C(c2ccc(/C=C/C(=O)Nc3ccccc3N)nc2)C1 (stereo not shown) [Example 73-2]
1200 | 3400 | 1.84 | 470 | 2400 |  |  |  |  | CN1CC(C(=O)Nc2ccc(F)cc2)C(c2ccc(/C=C/C(=O)Nc3ccccc3N)cc2F)C1 (stereo not shown) [Example 85-4]
